The text below walks through data of patent US20090270391A1, “THIENOPYRIDINE DERIVATIVE, OR QUINOLINE DERIVATIVE, OR QUINAZOLINE DERIVATIVE, HAVING c-MET AUTOPHOSPHORYLATION INHIBITING POTENCY” (Kirin Pharma Kabushiki Kaisha, priority 2005, published 2009).

Data set [1] has as its system Human gastric cancer cell line NU-GC-4. Briefly: Tumor growth inhibitory activity against human gastric cancer cell line NU-GC-4 in nude mice. The class given is in vivo. Particulars: 25 mg/kg oral once a day, 10th day. How it is done:
Human gastric cancer cell line NU-GC-4 (available from Cell Resource Center for Biomedical Research, Institute of Development Aging and Cancer, Tohoku University) is transplanted into nude mice. When the tumor volume becomes about 100 mm^3, the mice are grouped so that the groups each consist of four mice and have an even average tumor volume. The test compound suspended in 0.5% methylcellulose is orally administered once a day for 9 days.
Only 0.5% methylcellulose is administered to the control group in the same manner as in the test groups. The tumor growth inhibition rate (TGIR) is calculated as follows: The tumor growth inhibition rate (TGIR)=(1−TX/CX)×100 wherein CX represents the volume of tumor at day X for the control group and TX represents the volume of tumor for test compound administration groups, when the tumor volume at the day of the start of the administration is presumed to be 1.

The subject of data set [2] is mouse lower limb bone growth plate. Briefly: Influence on mouse lower limb bone growth plate. The class given is in vivo. To be noted: nude mice, 50 mg/kg oral once a day for 4 weeks. How it is done:
Nude mice (BALB-nu/nu, female, four weeks old, Charles River Japan, Inc.) were preliminarily raised for one week, and the mice were grouped so that each group consisted of 8 mice. Compound A (50 mg/kg) suspended in 0.5% methylcellulose was orally administered once a day for 4 weeks to the compound A group. On the other hand, 0.5% methylcellulose was administered to the control group in the same manner as in the compound A group.
On the 29th day after the initiation of the administration, the animals were killed from ether anesthesia. A lower limb bone around the knee region was removed, was fixed in buffer formalin, was deashed and was then subjected to paraffin embedding. A thin sliced sample was dyed with HE, and the knee bone was photographed, and whether or not thickening of the bone growth plate occurs was quantitatively determined with an image analysis software (WinROOF Ver5, MITANI CORPORATION).

Data set [3] in a line: Human liver microsome test. The class given is in vitro ADME. To be noted: data not shown. (In general: Microsomes from liver hold many membrane-bound enzymes, among them those of drug oxidation.)
For data set [4], the target named is T1, c-Met (Homo sapiens, UniProt P08581). Briefly: c-Met autophosphorylation inhibitory activity (general statement).
Target sequence in this assay (P08581 25-1390): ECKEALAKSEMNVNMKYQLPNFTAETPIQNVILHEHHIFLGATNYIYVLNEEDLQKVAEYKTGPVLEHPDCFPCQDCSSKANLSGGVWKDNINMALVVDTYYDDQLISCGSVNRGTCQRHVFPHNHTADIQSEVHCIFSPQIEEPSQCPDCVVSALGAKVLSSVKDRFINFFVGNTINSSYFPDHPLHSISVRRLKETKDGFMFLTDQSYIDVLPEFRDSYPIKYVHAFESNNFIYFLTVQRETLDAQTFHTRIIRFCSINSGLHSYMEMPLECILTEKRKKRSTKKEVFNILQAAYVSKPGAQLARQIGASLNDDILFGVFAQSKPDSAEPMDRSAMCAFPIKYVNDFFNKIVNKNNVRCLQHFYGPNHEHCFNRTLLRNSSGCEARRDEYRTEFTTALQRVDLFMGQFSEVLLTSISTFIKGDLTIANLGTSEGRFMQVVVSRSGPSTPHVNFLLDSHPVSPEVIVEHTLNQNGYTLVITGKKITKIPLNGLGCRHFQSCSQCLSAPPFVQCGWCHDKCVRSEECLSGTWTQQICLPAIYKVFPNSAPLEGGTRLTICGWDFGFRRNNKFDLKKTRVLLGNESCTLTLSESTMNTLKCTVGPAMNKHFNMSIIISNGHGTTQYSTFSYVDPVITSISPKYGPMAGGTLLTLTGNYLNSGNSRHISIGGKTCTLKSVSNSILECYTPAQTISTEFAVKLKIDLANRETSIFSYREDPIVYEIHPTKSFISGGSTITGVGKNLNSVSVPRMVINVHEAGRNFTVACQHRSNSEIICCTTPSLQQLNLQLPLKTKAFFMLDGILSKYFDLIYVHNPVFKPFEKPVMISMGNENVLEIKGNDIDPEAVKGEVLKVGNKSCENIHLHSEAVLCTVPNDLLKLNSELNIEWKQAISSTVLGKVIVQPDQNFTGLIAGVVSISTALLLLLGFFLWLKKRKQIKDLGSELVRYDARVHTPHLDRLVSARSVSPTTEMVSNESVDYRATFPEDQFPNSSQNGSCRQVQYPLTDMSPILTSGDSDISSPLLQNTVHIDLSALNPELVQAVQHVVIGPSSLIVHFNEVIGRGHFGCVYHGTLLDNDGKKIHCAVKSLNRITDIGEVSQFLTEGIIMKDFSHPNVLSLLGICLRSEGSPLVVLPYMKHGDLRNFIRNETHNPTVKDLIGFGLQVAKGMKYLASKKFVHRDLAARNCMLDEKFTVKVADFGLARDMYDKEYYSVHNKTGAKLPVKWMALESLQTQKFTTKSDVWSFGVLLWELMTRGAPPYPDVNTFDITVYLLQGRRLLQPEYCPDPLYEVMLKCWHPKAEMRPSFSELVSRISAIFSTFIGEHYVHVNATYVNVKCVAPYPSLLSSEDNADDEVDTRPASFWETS
Data set [5] addresses T2, KDR (Homo sapiens, UniProt P35968). Briefly: KDR autophosphorylation inhibitory activity (general statement).
Target sequence in this assay (P35968 20-1356): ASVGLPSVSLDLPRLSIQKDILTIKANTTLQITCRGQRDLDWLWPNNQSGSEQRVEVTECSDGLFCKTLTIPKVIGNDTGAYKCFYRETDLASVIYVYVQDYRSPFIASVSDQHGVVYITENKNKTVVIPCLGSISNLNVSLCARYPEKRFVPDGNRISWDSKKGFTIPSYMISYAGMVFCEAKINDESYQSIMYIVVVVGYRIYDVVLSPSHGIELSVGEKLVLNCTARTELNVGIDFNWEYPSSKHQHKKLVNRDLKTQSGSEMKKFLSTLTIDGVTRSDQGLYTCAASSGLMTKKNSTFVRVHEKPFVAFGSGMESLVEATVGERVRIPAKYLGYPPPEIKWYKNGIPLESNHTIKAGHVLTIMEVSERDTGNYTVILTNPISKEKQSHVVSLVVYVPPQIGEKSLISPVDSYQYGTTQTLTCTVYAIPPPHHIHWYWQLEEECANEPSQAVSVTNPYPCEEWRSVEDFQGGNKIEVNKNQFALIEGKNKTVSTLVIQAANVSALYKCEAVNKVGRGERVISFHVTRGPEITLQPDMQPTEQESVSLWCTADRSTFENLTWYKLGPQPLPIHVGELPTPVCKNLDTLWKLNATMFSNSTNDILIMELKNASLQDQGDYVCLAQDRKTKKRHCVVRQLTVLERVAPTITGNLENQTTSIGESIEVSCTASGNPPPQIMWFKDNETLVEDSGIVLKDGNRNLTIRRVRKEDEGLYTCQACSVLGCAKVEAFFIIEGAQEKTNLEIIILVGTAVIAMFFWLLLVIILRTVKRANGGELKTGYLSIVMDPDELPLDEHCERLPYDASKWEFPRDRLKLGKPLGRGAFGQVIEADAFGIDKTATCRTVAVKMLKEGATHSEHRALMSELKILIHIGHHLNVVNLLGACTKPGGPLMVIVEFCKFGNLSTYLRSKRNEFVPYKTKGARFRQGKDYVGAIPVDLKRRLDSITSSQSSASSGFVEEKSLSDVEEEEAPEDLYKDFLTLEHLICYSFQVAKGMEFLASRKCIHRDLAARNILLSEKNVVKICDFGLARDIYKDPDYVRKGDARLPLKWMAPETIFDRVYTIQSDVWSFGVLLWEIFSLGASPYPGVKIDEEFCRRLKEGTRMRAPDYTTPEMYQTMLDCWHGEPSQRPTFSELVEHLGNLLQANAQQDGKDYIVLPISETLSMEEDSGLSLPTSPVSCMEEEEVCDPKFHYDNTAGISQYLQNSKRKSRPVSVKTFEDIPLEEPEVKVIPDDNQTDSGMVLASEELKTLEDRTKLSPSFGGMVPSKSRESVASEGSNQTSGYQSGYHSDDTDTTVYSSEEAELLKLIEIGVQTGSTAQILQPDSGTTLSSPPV
Data set [6] addresses T1, c-Met. Briefly: c-Met autophosphorylation inhibition in culture cells A431, HGF stimulated (immunoprecipitation/blot). The class given is cell-based. Also on record: endogenous in cells. Particulars: 50 ng/ml HGF. From the text: (§1) MKN45 (human poorly differentiated gastric cancer cell line, Riken) and A431 (human epithelioid cancer cell line, JCRB) were used for the measurement of c-Met autophosphorylation inhibition, and HUVEC (human vascular endothelial cells, KURABO INDUSTRIES LTD.) was used for the measurement of KDR autophosphorylation inhibitory activity.
(§2) MKN45 (2.5×10^5/well) or A431 (8.5×10^5/well) was inoculated into wells, containing RPMI (GIBCO) containing 0.1% fetal calf serum (JRH Biosciences), in a 6-well plate (Collagen Type I coated Plate, 4810-010, IWAKI), and, 24 hr after the inoculation, the medium was replaced with an RPMI medium containing 0.10% fetal calf serum. Thereafter, compound A was added, followed by incubation for 90 min under conditions of 37° C. and 5% CO2. The culture was removed without stimulation for MKN45 and after stimulation for 10 min with 50 ng/ml HGF (294-HG, R&D SYSTEMS) for A431. A solubilizing buffer solution (20 mM HEPES (pH 7.4), 150 mM NaCl, 0.2% TritonX-100, […], 5 mM sodium orthovanadylate, 5 mM disodium ethylenediaminetetraacetate, and 2 mM Na4P2O7) (500 μl/well) was added to satisfactorily solubilize the cells. […] The film was quantified by Scion Image, and the IC50 value was determined with an analysis software Graph Pad Prism Ver.4 (Graph Pad Software, Inc.).
Target sequence in this assay (P08581 25-1390): as the sequence (P08581 25-1390) above

The target of data set [7] is T1, c-Met. Briefly: c-Met enzyme inhibitory activity (32P-ATP, SDS-PAGE). The class given is biochemical. On the set-up: purchased upstate 14-526. How it is done:
(§3) c-Met protein (upstate, Lot: 25735AU, catalog code 14-526) was diluted with EDB (20 mM MOPS (pH 7.0), 1 mM EDTA, 0.01% Brij 35, 5% glycerol, 0.1% β-mercaptoethanol, and 1 mg/ml BSA) to 10 ng/μl. The KDR protein (812-1346AA) was prepared from SF21 insect cells (affinity purification, 12.4 μg/μl) according to the protocol of Invitrogen (Bac to Bac (tradename) baculovirus expression system) and was diluted with EDB to 248 ng/μl. A five-fold concentration of a reaction buffer (40 mM MOPS (pH 7.4), 1 mM EDTA) (5 μl), a ten-fold concentration of compound A (5 μl), 250 mM MnCl2 (2.5 μl), sterilized distilled water (2.5 μl), c-Met protein or KDR protein (5 μl) was mixed thereinto under ice cooling. An ATP reaction solution (25 mM ATP, 10 μci/μl γ-^32P-ATP (1 μl), 25 mM Mg (OAc)2, and 1.25 mM Hepes (pH7.4)) (10 μl) was added, and the mixture was allowed to react at 37° C. for 10 min. A tris-SDS β-ME sample treatment liquid (301780, Daiichi Kagaku Inc.) (10 μl) was added to stop the reaction. The reaction solution was boiled at 95° C. for 5 min and was then subjected to SDS-PAGE. The gel after the migration was packed, and an imaging plate (Fuji Film) was applied to the gel for transfer, followed by analysis with Typhoon (Amersham Biosciences). The IC50 value was calculated with a software for analysis Graph Pad Prism Ver.4 (Graph Pad Software, Inc.).
Target sequence in this assay (P08581 974-1390 limits assumed): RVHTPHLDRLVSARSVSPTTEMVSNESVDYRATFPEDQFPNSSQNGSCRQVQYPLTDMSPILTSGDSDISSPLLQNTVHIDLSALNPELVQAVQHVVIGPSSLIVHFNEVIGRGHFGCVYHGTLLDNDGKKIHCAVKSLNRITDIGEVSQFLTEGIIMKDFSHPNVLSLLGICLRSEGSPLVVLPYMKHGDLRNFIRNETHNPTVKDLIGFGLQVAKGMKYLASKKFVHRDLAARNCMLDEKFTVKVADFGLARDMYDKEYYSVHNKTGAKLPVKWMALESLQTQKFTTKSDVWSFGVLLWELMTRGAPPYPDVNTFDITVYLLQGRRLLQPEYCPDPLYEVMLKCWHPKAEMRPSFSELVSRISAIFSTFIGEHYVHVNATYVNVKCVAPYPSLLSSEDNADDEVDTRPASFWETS

Data set [8] concerns the target T1, c-Met. Briefly: c-Met autophosphorylation inhibition in culture cells MKN45 (immunoprecipitation/blot). Also on record: endogenous in cells; host or cells: MKN45. The class given is cell-based.
Text: as §1, §2
Target sequence in this assay (P08581 25-1390): as the sequence (P08581 25-1390) above

In data set [9] the target is T2, KDR. Briefly: KDR autophosphorylation inhibition in HUVEC, VEGF stimulated. The class given is cell-based. Also on record: endogenous in cells; host or cells: HUVEC. Particulars: 50 ng/ml VEGF.
Text: as §1
HUVEC was inoculated into an EGM medium (KURABO INDUSTRIES LTD.) so that the number of cells was 2×10^6/100-mm Petri dish (Collagen coated Dish, 4020-010, IWAKI), and, 24 hr after the inoculation, the EGM medium was replace with an EBM medium containing 0.5% fetal calf serum (KURABO INDUSTRIES LTD.). Compound A was added, and the mixture was incubated for 90 min. After stimulation with 50 ng/ml of VEGF (100-20, PeproTech, Inc.) for 5 min, the culture was removed. The residue was subjected to immunoprecipitation with a KDR antibody (Flk-1, C-1158, Santa Cruz) by the above c-Met autophosphorylation inhibitory activity measuring method, followed by SDS-PAGE to measure KDR autophosphorylation inhibitory activity.
Target sequence in this assay (P35968 20-1356): as the sequence (P35968 20-1356) above

For data set [10], the target named is T2, KDR. Briefly: KDR enzyme inhibitory activity (32P-ATP, SDS-PAGE). The class given is biochemical. On the set-up: The KDR protein (812-1346AA) was prepared from SF21 insect cells; made in house; host or cells: SF21 insect cells (Bac to Bac baculovirus system). How it is done:
as §3
Target sequence in this assay (P35968 812-1346): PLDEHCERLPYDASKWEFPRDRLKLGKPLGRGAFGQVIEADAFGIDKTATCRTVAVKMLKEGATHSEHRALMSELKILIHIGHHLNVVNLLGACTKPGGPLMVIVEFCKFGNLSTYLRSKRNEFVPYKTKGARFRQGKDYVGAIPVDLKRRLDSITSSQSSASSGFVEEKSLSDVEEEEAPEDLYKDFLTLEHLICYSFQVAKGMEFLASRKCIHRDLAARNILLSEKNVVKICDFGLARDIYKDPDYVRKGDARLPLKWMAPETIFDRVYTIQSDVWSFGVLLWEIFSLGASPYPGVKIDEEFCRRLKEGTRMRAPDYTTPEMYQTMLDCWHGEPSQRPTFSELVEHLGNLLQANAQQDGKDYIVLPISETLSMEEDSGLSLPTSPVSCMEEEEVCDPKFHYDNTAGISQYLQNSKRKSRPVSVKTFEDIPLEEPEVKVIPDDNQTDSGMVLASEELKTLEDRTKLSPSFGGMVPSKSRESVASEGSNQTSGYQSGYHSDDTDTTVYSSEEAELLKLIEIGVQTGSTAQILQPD

Molecules are shown by their SMILES.

As a reminder, the IC50 is the concentration that inhibits the measured activity by half. Lower therefore signals greater potency. With `COc1cc(Oc2ccnc3cc(OC)c(OC)cc23)ccc1NC(=S)NC(=O)Cc1ccc(F)cc1` [Compound A, N-[4-{(6,7-dimethoxy-4-quinolyl)oxy}-2-methoxyphenyl]-N′-[2-(4-fluorophenyl)acetyl]thiourea], the “TGIR (tumor growth inhibition rate)” value in data set [1] amounted to 78%. Moreover, the “thickening of the bone growth plate” value in data set [2] is given as “did not induce the thickening of the bone growth plate”. Further, in data set [2] (versus control group), the “bone growth plate area” value was “no significant difference”. For the same compound, in data set [3], the metabolic rate result is “proper metabolic rate”. Also, the “c-Met autophosphorylation inhibitory activity” value in [4] was “high”. Further, in [5], the “KDR autophosphorylation inhibitory activity” value was “low”. Moreover, the IC50 in [6] is 9.3 nM; in [7], 15.5 nM; in data set [8] (c-Met (MKN45), without stimulation) it was 11.3 nM; in [9] it was at least 1000 nM; in data set [10], at least 1000 nM. Moreover, the c-Met/KDR selectivity entry in [8] (c-Met versus KDR autophosphorylation in culture cells) is given as “high”.
